This note sets out measurements from patent US10294228B2, “Breathing control modulating compounds, and methods of making and using same” (NEURAD LTD., priority 2015, dated 2019).

Structures can show the parent of a compound that is named as a salt.

Data set [1] in a line: Polymorphic transformation by exposure to humidity. As to conditions: >80% humidity, three days, ambient temperature; confirmed by XRPD and DSC. In kind it is physicochemical. How it is done:
Approximately 10 mg of the solid as its initially obtained polymorphic form were placed in a 4 mL open vial. In a 20 mL vial, about 5 mL of distilled water were added and heated to about 50° C., then the vial was capped, and the contents were cooled for about 30 minutes at ambient temperature. Then the 20 mL vial was uncapped, the smaller vial was placed inside the bigger vial, the bigger vial was recapped, and the sample in the smaller vial was exposed and aged in an environment of approximately 80-95% relative humidity at ambient temperature for 3 days. Polymorphic transformation was confirmed by XRPD and DSC vs. that for the initially obtained polymorphic form.

Data set [2] deals with anesthetized rats. The data set can be described thus: Anesthetized rat spirometry screening assay (ventilatory activity, minute volume). Conditions: increase in minute volume (VE); for change in vivo at 0.3 mg/kg: 0.3 mg/kg IV bolus, read-out: VE % Inc @ 0.3 mg/kg IV; for change in vivo at 3 mg/kg: 3.0 mg/kg IV bolus, read-out: VE % Inc @ 3.0 mg/kg IV. Type of data set: in vivo. Summed up: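 Urethane-anesthetized (1.5 g/kg i.v.) rats with tracheal cannula to pneumotachometer; minute volume derived from respiratory rate × tidal volume. Compounds given as i.v. bolus at 0.1 and/or 0.3 and/or 3 mg/kg, monitored at least 6 min; data as 30 s averages.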

As to `CCCNc1nc(NC)nc2c(NCC(C)(C)O)nc(NC)nc12` [Compound 31h-1, 1-(2,6-Bis-methylamino-8-propylamino-pyrimido[5,4-d]pyrimidin-4-ylamino)-2-methyl-propan-2-ol], the “polymorphic transformation on exposure to humidity” value in data set [1] is reported as “converted to form Tos-B (31h-2)”. Consider `CCCNc1nc(NC)nc2c(NCCO)nc(NC)nc12` [Compound 4a, 2-(2,6-Bis-methylamino-8-propylamino-pyrimido[5,4-d]pyrimidin-4-ylamino)-ethanol hydrochloride], for which the change in vivo at 0.3 mg/kg in data set [2] turned out to be 90%. Turning to `CCCNc1nc(NC)c2nc(NC(C)C(C)O)nc(NC)c2n1` (stereo not drawn) [Compound 119, 3-(4,8-Bis-methylamino-6-propylamino-pyrimido[5,4-d]pyrimidin-2-ylamino)-butan-2-ol], in data set [2], the change in vivo at 0.3 mg/kg stood at 10% and the change in vivo at 3 mg/kg turned out to be 151%. On the same counts, the results for `CNc1nc(NCc2ccccc2)c2nc(NC)nc(NCCO)c2n1` [Compound 64a, 2-(8-Benzylamino-2,6-bis-methylamino-pyrimido[5,4-d]-pyrimidin-4-ylamino)-ethanol Hydrochloride] are 32% and 157%.

For the compound `CCCNc1nc(NC)c2nc(N[C@@H]3c4ccccc4C[C@@H]3O)nc(NC)c2n1` [Compound 123, (1R,2S)-1-(4,8-Bis-methylamino-6-propylamino-pyrimido[5,4-d]-pyrimidin-2-ylamino)-indan-2-ol], in data set [2], the change in vivo at 0.3 mg/kg is 11% and the change in vivo at 3 mg/kg was found to be 129%.

With `CNc1nc(NCC(C)(C)O)c2nc(NC)nc(NC)c2n1` [Compound 48a, 2-Methyl-1-(2,6,8-tris-methylamino-pyrimido[5,4-d]-pyrimidin-4-ylamino)-propan-2-ol Hydrochloride], in data set [2], the change in vivo at 0.3 mg/kg stood at 20% and the change in vivo at 3 mg/kg amounted to 78%.

For the compound `CNc1nc(NCC(F)F)c2nc(NC)nc(NCCO)c2n1` [Compound 60a, 2-[8-(2,2-Difluoro-ethylamino)-2,6-bis-methylamino-pyrimido[5,4-d]-pyrimidin-4-ylamino]-ethanol Hydrochloride], in data set [2], the change in vivo at 0.3 mg/kg came to 15% and the change in vivo at 3 mg/kg is 119%. On the same counts, the results for `CCCNc1nc(NC)c2nc(NCC(O)CO)nc(NC)c2n1` (stereo not drawn) [Compound 121, 3-(4,8-Bis-methylamino-6-propylamino-pyrimido[5,4-d]pyrimidin-2-ylamino)-propane-1,2-diol] are 0% and 38%. With `CCCNc1nc(NC)nc2c(N(C)CC(C)(C)O)nc(NC)nc12` [Compound 76, 1-[(2,6-Bis-methylamino-8-propylamino-pyrimido[5,4-d]pyrimidin-4-yl)-methyl-amino]-2-methyl-propan-2-ol], in data set [2], the change in vivo at 0.3 mg/kg worked out at 37% and the change in vivo at 3 mg/kg was determined as 71%. On to `CCCNc1nc(NC)nc2c(NCC(C)(C)O)nc(NC)nc12` [Compound 31d-1, 1-(2,6-Bis-methylamino-8-propylamino-pyrimido[5,4-d]pyrimidin-4-ylamino)-2-methyl-propan-2-ol], for which the “polymorphic transformation on exposure to humidity” value in data set [1] is recorded as “converted to form Mal-B (31d-2)”. Consider `CCCNc1nc(NCC)nc2c(NCC(C)(C)O)nc(NCC)nc12` [Compound 32a, 1-(2,6-Bis-ethylamino-8-propylamino-pyrimido[5,4-d]-pyrimidin-4-ylamino)-2-methyl-propan-2-ol hydrochloride], for which, in data set [2], the change in vivo at 0.3 mg/kg was found to be 201%.
